Experimental data published in patent US11458189B2, “Cytoprotective drugs” (BALMES TRANSPLANTATION, priority 2017, dated 2022).
Starred links: 1 amine or outer side, 2 acyl side, 3 side chain; linkers in the order of their positions; H or OH if unused. Positions of bridges follow the written chain, without caps; N, C: chain ends. Non-standard residues stand in square brackets, D forms with d. Residues, ends and D or L forms follow the SMILES beside them. *: point of attachment. hTyr(3S-OH,4S-OH,3'-OSO3H) = N[C@H](C(=O)O)[C@H](O)[C@@H](O)c1ccc(O)c(OS(=O)(=O)O)c1; Orn(4R-OH,5R-OH) = O=C([C@H](C[C@@H](O)[C@@H](O)N[*:3])N[*:1])[*:2]; Pro(3S-OH,4S-Me) = C[C@H]1CN[C@H](C(=O)O)[C@H]1O; X1 = CCCCCOc1ccc(-c2cc(-c3ccc(C(=O)*)cc3)no2)cc1; Gln(3R-OH) = NC(=O)C[C@@H](O)[C@H](N)C(=O)O; Hyp = O=C(O)[C@@H]1C[C@@H](O)CN1

Test system: Rat Primary Kidney Glomerular Endothelial cells
Experiment: Oxygen and glucose deprivation followed by replenishment, cell survival (calcein AM), rat glomerular endothelial cells;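 on Survival rate (%): 100% is hypoxia control with glucose and 0% is untreated OGD control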
Type: cell-based
Experimental: Anidulafungin and micafungin were tested on Human Renal Glomerular Endothelial Cells (HRGEC, Innoprot P10665), on Human Renal Proximal Tubular Epithelial Cells (HRPTEpiC, Innoprot P10662), on Human Astrocytes (HA, caltag SC-1800), on Human Cardiac Microvascular Endothelial Cells (HCMEC, Caltag SC-6000), on Human Hepatic Sinusoidal Endothelial Cells (HHSEC, Caltag SC-5000), on Rat Primary Kidney Glomerular Endothelial cells (Cellbiologics, RN-6014G) and on Bovine Brain Microvascular Endothelial Cells (BBMEC, Caltag SC-B100).
In a first phase, these isolated, purified and cryopreserved cells are thawed and multiplied according to the supplier's recommendations in T75 or T175 flasks pre-coated with 2 μg of fibronectin/[…] (CORNING) for HRGEC, HCMEC, HHSEC and BBMEC, or 2 μg poly-L-lysin/cm^2 (Caltag SC-0403) for HRPTEpiC and HA, or 15 mL/flask 175 cm^2 gelatin-based solution (Cellbiologics) in the presence of endothelial cell supplemented growth medium ECM (P60104, INNOPROT, Caltag, SC-1001) for HRGEC, HCMEC, HHSEC, RPKGEC or BBMEC, or astrocyte cell supplemented growth medium AM (Caltag SC-1801) for HA or epithelial cell supplemented growth medium EpiCM (P60106, INNOPROT) for HRPTEpiC, at 37° C. under 5% CO2 and saturated humidity until their confluency. They are then harvested by trypsinization according to the method described by the supplier for exactly 5 minutes and then reseeded in new flasks a maximum of three times.
To carry out the oxygen and glucose deprivation test followed by their replenishment, the cells will be seeded in 96-well black plates with transparent flat bottom (GREINER). Once a sufficient number of cells has been obtained to allow seeding of 2000 to 15000 cells per well of 96-well plates depending on the cell type, the cells are seeded in these 96-well plates previously coated with an extracellular matrix as listed above for the flasks. The cells are cultured for 5 to 8 days according to the cell type, in the presence of the same growth medium as in the flask as described above except for HRGEC and HRPTEpiC for which DMEM (DUTSCHER) with 1 g/L of supplemented glucose is used, at 37° C. under 5% CO2 and saturated humidity to obtain confluency.
On the first day of oxygen and glucose deprivation, (5th, 6th, 7th or 8th day of culture), the culture conditions are drastically changed. The medium of all plates is removed and replaced by DMEM (DUTSCHER) medium without glucose and supplemented only with 1% penicillin-streptomycin (DUTSCHER). Anidulafungin or micafungin dissolved in dimethyl sulfoxide (DMSO) is then added to each well at the desired concentration, resulting in a maximum of 1% DMSO, and the plates are placed under hypoxia at <1% 02 and 5% CO2 at 37° C. for 24 hours of culture. Each compound was tested in a concentration range.
After 24 hours, the growth medium is changed and replaced by a richer medium, DMEM (DUTSCHER) at 1 g/L glucose and 2% FBS (INNOPROT) and 1% penicillin-streptomycin (DUTSCHER). These media will have been pre-equilibrated at 37° C. in advance. The cells are then returned to culture at 37° C. under 20% 02 and 5% CO2 for 22h.
After 22 hours of reoxygenation, the potential protective effect of anidulafungin or micafungin is measured by a cell viability test using calcein AM (CORNING), which is a dye substrate. The calcein AM can easily cross the cell membrane of the viable cells. The AM ester groups mask the part of the molecule that chelates calcium. Once inside the cells, the (non-fluorescent) calcein AM is hydrolyzed to (fluorescent) calcein by endogenous esterases. The resulting calcein molecule binds to calcium inside the cell and remains trapped inside the cell. These molecules emit strong green fluorescence when subjected to […] of a particular wavelength (495 nm). Since dead cells lack esterase activity, only living cells are labelled.
This cell viability test is performed in two steps. […]

Q: With `CCCCCOc1ccc(-c2cc(-c3ccc(C(=O)N[C@H]4C[C@@H](O)[C@@H](O)NC(=O)[C@@H]5[C@@H](O)[C@@H](C)CN5C(=O)[C@H]([C@H](O)CC(N)=O)NC(=O)[C@H]([C@H](O)[C@@H](O)c5ccc(O)c(OS(=O)(=O)O)c5)NC(=O)[C@@H]5C[C@@H](O)CN5C(=O)[C@H]([C@@H](C)O)NC4=O)cc3)no2)cc1` [Micafungin, {5-[(1S,2S)-2-[(3S,6S,9S,11R,15S,18S,20R,21R,24S,25S,26S)-3-[(1R)-2-carbamoyl-1-hydroxyethyl]-11,20,21,25-tetrahydroxy-15-[(1R)-1-hydroxyethyl]-26-methyl-2,5,8,14,17,23-hexaoxo-18-[(4-{5-[4-(pentyloxy)phenyl]-1,2-oxazol-3-yl}benzene)amido]-1,4,7,13,16,22-hexaazatricyclo[22.3.0.0]heptacosan-6-yl]-1,2-dihydroxyethyl]-2-hydroxyphenyl}oxidanesulfonic acid] (X1-[Orn(4R-OH,5R-OH)]T[Hyp][hTyr(3S-OH,4S-OH,3'-OSO3H)][Gln(3R-OH)][Pro(3S-OH,4S-Me)]; lactam 1-C) as the compound, how does the “Globalfluo assay 1” value ([Micafungin] log μM 1.176091) read?
A: 17307060 arbitrary units

Q: And the “Globalfluo assay 2” value ([Micafungin] log μM 1.176091)?
A: 19173810 arbitrary units

Q: What about the “Globalfluo assay 3” value ([Micafungin] log μM 1.176091) of the same compound?
A: 18057880 arbitrary units

Q: And the Mean globalfluo ([Micafungin] log μM 1.176091)?
A: 18179583 arbitrary units

Q: And the “Survival rate (%)” value ([Micafungin] log μM 1.176091)?
A: 57%

Q: And the “Globalfluo assay 1” value ([Micafungin] log μM 1.30103)?
A: 21761030 arbitrary units

Q: What about the “Globalfluo assay 2” value ([Micafungin] log μM 1.30103) of the same compound?
A: 21216730 arbitrary units

Q: And the “Globalfluo assay 3” value ([Micafungin] log μM 1.30103)?
A: 18246850 arbitrary units

Q: What about the Mean globalfluo ([Micafungin] log μM 1.30103) of the same compound?
A: 20408203 arbitrary units

Q: What about the “Survival rate (%)” value ([Micafungin] log μM 1.30103) of the same compound?
A: 66%

Q: And the “Globalfluo assay 1” value ([Micafungin] log μM 1.477121)?
A: 23916400 arbitrary units

Q: And the “Globalfluo assay 2” value ([Micafungin] log μM 1.477121)?
A: 22885210 arbitrary units

Q: What about the “Globalfluo assay 3” value ([Micafungin] log μM 1.477121) of the same compound?
A: 21104460 arbitrary units

Q: And the Mean globalfluo ([Micafungin] log μM 1.477121)?
A: 22635357 arbitrary units

Q: What about the “Survival rate (%)” value ([Micafungin] log μM 1.477121) of the same compound?
A: 75%

Q: What about the “Globalfluo assay 1” value ([Micafungin] log μM 1.60206) of the same compound?
A: 21279700 arbitrary units

Q: And the “Globalfluo assay 2” value ([Micafungin] log μM 1.60206)?
A: 21255650 arbitrary units

Q: What about the “Globalfluo assay 3” value ([Micafungin] log μM 1.60206) of the same compound?
A: 20543100 arbitrary units

Q: What about the Mean globalfluo ([Micafungin] log μM 1.60206) of the same compound?
A: 21026150 arbitrary units

Q: What about the “Survival rate (%)” value ([Micafungin] log μM 1.60206) of the same compound?
A: 69%

Q: What about the “Globalfluo assay 1” value ([Micafungin] log μM 1.778151) of the same compound?
A: 22384980 arbitrary units

Q: And the “Globalfluo assay 2” value ([Micafungin] log μM 1.778151)?
A: 24586670 arbitrary units

Q: And the “Globalfluo assay 3” value ([Micafungin] log μM 1.778151)?
A: 22823930 arbitrary units

Q: What about the Mean globalfluo ([Micafungin] log μM 1.778151) of the same compound?
A: 23265193 arbitrary units

Q: What about the “Survival rate (%)” value ([Micafungin] log μM 1.778151) of the same compound?
A: 78%

Q: And the “Globalfluo assay 1” value ([Micafungin] log μM 1.90309)?
A: 25482590 arbitrary units

Q: And the “Globalfluo assay 2” value ([Micafungin] log μM 1.90309)?
A: 16667370 arbitrary units

Q: And the “Globalfluo assay 3” value ([Micafungin] log μM 1.90309)?
A: 22222960 arbitrary units

Q: What about the Mean globalfluo ([Micafungin] log μM 1.90309) of the same compound?
A: 21457640 arbitrary units

Q: And the “Survival rate (%)” value ([Micafungin] log μM 1.90309)?
A: 71%

Q: What about the “Globalfluo assay 1” value ([Micafungin] log μM 2) of the same compound?
A: 23318050 arbitrary units

Q: And the “Globalfluo assay 2” value ([Micafungin] log μM 2)?
A: 20442770 arbitrary units

Q: And the “Globalfluo assay 3” value ([Micafungin] log μM 2)?
A: 22906760 arbitrary units

Q: What about the Mean globalfluo ([Micafungin] log μM 2) of the same compound?
A: 22222527 arbitrary units

Q: What about the “Survival rate (%)” value ([Micafungin] log μM 2) of the same compound?
A: 74%

Q: And the “Globalfluo assay 1” value ([Micafungin] log μM 2.176091)?
A: 20166170 arbitrary units

Q: And the “Globalfluo assay 2” value ([Micafungin] log μM 2.176091)?
A: 24333680 arbitrary units

Q: What about the “Globalfluo assay 3” value ([Micafungin] log μM 2.176091) of the same compound?
A: 26066530 arbitrary units

Q: What about the Mean globalfluo ([Micafungin] log μM 2.176091) of the same compound?
A: 23522127 arbitrary units

Q: What about the “Survival rate (%)” value ([Micafungin] log μM 2.176091) of the same compound?
A: 79%

Q: And the “Globalfluo assay 1” value ([Micafungin] log μM −0.154902)?
A: 3831476 arbitrary units

Q: And the “Globalfluo assay 2” value ([Micafungin] log μM −0.154902)?
A: 4395798 arbitrary units

Q: And the “Globalfluo assay 3” value ([Micafungin] log μM −0.154902)?
A: 3538568 arbitrary units

Q: And the Mean globalfluo ([Micafungin] log μM −0.154902)?
A: 3921947 arbitrary units

Q: And the “Survival rate (%)” value ([Micafungin] log μM −0.154902)?
A: 0%

Q: And the “Globalfluo assay 1” value ([Micafungin] log μM −0.30103)?
A: 4962690 arbitrary units

Q: What about the “Globalfluo assay 2” value ([Micafungin] log μM −0.30103) of the same compound?
A: 4263110 arbitrary units

Q: What about the “Globalfluo assay 3” value ([Micafungin] log μM −0.30103) of the same compound?
A: 4133198 arbitrary units

Q: And the Mean globalfluo ([Micafungin] log μM −0.30103)?
A: 4452999 arbitrary units

Q: And the “Survival rate (%)” value ([Micafungin] log μM −0.30103)?
A: 2%

Q: What about the “Globalfluo assay 1” value ([Micafungin] log μM −0.5228788) of the same compound?
A: 4164368 arbitrary units

Q: And the “Globalfluo assay 2” value ([Micafungin] log μM −0.5228788)?
A: 5246152 arbitrary units

Q: And the “Globalfluo assay 3” value ([Micafungin] log μM −0.5228788)?
A: 3621246 arbitrary units

Q: What about the Mean globalfluo ([Micafungin] log μM −0.5228788) of the same compound?
A: 4343922 arbitrary units

Q: What about the “Survival rate (%)” value ([Micafungin] log μM −0.5228788) of the same compound?
A: 2%

Q: What about the “Globalfluo assay 1” value ([Micafungin] log μM −1) of the same compound?
A: 4086038 arbitrary units

Q: And the “Globalfluo assay 2” value ([Micafungin] log μM −1)?
A: 5779074 arbitrary units

Q: And the “Globalfluo assay 3” value ([Micafungin] log μM −1)?
A: 4555233 arbitrary units

Q: What about the Mean globalfluo ([Micafungin] log μM −1) of the same compound?
A: 4806782 arbitrary units

Q: What about the “Survival rate (%)” value ([Micafungin] log μM −1) of the same compound?
A: 4%

Q: And the “Globalfluo assay 1” value ([Micafungin] log μM −2)?
A: 4295861 arbitrary units

Q: And the “Globalfluo assay 2” value ([Micafungin] log μM −2)?
A: 4126418 arbitrary units

Q: What about the “Globalfluo assay 3” value ([Micafungin] log μM −2) of the same compound?
A: 4707699 arbitrary units

Q: What about the Mean globalfluo ([Micafungin] log μM −2) of the same compound?
A: 4376659 arbitrary units

Q: What about the “Survival rate (%)” value ([Micafungin] log μM −2) of the same compound?
A: 2%

Q: What about the “Globalfluo assay 1” value ([Micafungin] log μM −3) of the same compound?
A: 4397869 arbitrary units

Q: What about the “Globalfluo assay 2” value ([Micafungin] log μM −3) of the same compound?
A: 4804046 arbitrary units

Q: And the “Globalfluo assay 3” value ([Micafungin] log μM −3)?
A: 3922702 arbitrary units

Q: And the Mean globalfluo ([Micafungin] log μM −3)?
A: 4374872 arbitrary units

Q: What about the “Survival rate (%)” value ([Micafungin] log μM −3) of the same compound?
A: 2%
